In one data set the test system is HBV. Put plainly: HBV inhibitory activity: HBV DNA in the culture medium of HepG2.2.15 cells by q-PCR. The class given is cell-based. To be noted: Hepatitis B virus, HepG2.2.15, 144 h. The procedure, abridged:
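HepG2.2.15 cells in 2% FBS medium, 40,000 per well, treated 6 days with compound (medium refreshed once), eight 3-fold dilutions from 10 μM top. HBV DNA extracted from culture medium and quantified by q-PCR; EC50 averaged over repeats. Cytotoxicity run in parallel at 5,000 cells per well, top 100 μM, giving CC50.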

Data set [1] can be described thus: Cytotoxicity determination in HepG2.2.15 cells (CCK-8). Particulars: human, 6 days of compound treatment, CCK-8, highest concentration 100 μM. The class given is cell-based. The procedure, abridged: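 HepG2.2.15 cells seeded at 5,000 cells/well in 2% FBS medium, incubated overnight at 37° C., then treated 6 days with compounds (8 points, 3-fold dilutions, top 100 μM), medium refreshed once midway. CCK-8 added for 2.5 h; A450 read against 630 nm reference; CC50 calculated, averaged over repeats.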

Where [2] appears, read: HepG2.2.15 cells, 6 days of compound treatment, HBV DNA in culture medium by q-PCR, highest concentration 10 μM, read-out: EC50.

Like-named read-outs stand apart in the source and are kept apart here.

On to `CCOC(=O)C1=C([C@H]2CC[C@H](C(=O)O)CC2)NC(c2nccs2)=NC1c1cccc(F)c1Br` (stereo partly drawn) [Compound 150A, (trans)-4-(6-(2-bromo-3-fluorophenyl)-5-(ethoxycarbonyl)-2-(thiazol-2-yl)-3,6-dihydropyrimidin-4-yl)cyclohexane-1-carboxylic Acid], for which the EC50 in the data set on HBV (setting [2]) stood at 71 nM. In data set [1], this compound had a CC50 at 6 days of 28100 nM.

Consider `COC(=O)C1=C(C2CCN(C)C(=O)C2)NC(c2nccs2)=NC1c1cccc(F)c1Cl` (single isomer, unassigned) [Compound 4B, Methyl 4-(2-chloro-3-fluorophenyl)-6-(1-methyl-2-oxopiperidin-4-yl)-2-(thiazol-2-yl)-1,4-dihydropyrimidine-5-carboxylate], for which the EC50 with HBV (setting [2]) was 351 nM. Moreover, in data set [1], the CC50 at 6 days was > 10000 nM.

Consider `COC(=O)C1=C(C2CCN(S(=O)(=O)[C@H]3C[C@H](C(=O)O)C3)CC2)NC(c2nccs2)=NC1c1ccc(F)c(F)c1Br` (relative stereo) [Compound 162, trans-3-((4-(−6-(2-Bromo-3,4-difluorophenyl)-5-(methoxycarbonyl)-2-(thiazol-2-yl)-3,6-dihydropyrimidin-4-yl)piperidin-1-yl)sulfonyl)cyclobutanecarboxylic Acid], for which, in the data set on HBV (setting [2]), the concentration giving a half-maximal response (EC50) stood at 59 nM. Moreover, in data set [1], the 50% cytotoxic concentration (CC50) at 6 days was determined as 34500 nM.

`CCOC(=O)C1=C([C@@H]2CCC[C@H](C(=O)O)CC2)NC(c2nccs2)=NC1c1ccc(F)c(F)c1Cl` (relative stereo) [Compound 302C, (cis)-4-(−6-(2-Chloro-3,4-difluorophenyl)-5-(ethoxycarbonyl)-2-(thiazol-2-yl)-3,6-dihydropyrimidin-4-yl)cycloheptanecarboxylic Acid]: in the data set on HBV (setting [2]), the EC50 was 50 nM. Also, the CC50 at 6 days in data set [1] came to 10200 nM.

For `COC(=O)C1=C([C@H]2CC[C@H](NS(=O)(=O)C3COC3)CC2)NC(c2nccs2)=NC1c1ccc(F)cc1Cl` (single isomer, unassigned) [Compound 384B, (trans)-Methyl 4-(2-chloro-4-fluorophenyl)-6-(4-(oxetane-3-sulfonamido)cyclohexyl)-2-(thiazol-2-yl)-1,4-dihydropyrimidine-5-carboxylate], the EC50 in the data set with HBV (setting [2]) worked out at 65 nM. This compound showed a cytotoxic concentration (CC50) at 6 days in data set [1] of 34000 nM.

As for `COC(=O)C1=C(C2CCCO2)NC(c2nccs2)=NC1c1ccc(F)cc1Cl` (single isomer, unassigned) [Compound 70D, Methyl 4-(2-chloro-4-fluorophenyl)-6-(tetrahydrofuran-2-yl)-2-(thiazol-2-yl)-1,4-dihydropyrimidine-5-carboxylate], in the data set with HBV (setting [2]), the concentration giving a half-maximal response (EC50) turned out to be 140 nM. The compound also had a CC50 at 6 days in data set [1] of 22600 nM.

Regarding `COC(=O)C1=C([C@H]2CC[C@H](NS(=O)(=O)CCCO)CC2)NC(c2nccs2)=NC1c1ccc(F)c(F)c1Cl` (relative stereo) [Compound 253B, (trans)-Methyl 4-(2-chloro-3,4-difluorophenyl)-6-(4-(3-hydroxypropylsulfonamido)cyclohexyl)-2-(thiazol-2-yl)-1,4-dihydropyrimidine-5-carboxylate], the EC50 in the data set on HBV (setting [2]) turned out to be 8 nM. The CC50 at 6 days in data set [1] was found to be 13700 nM.

Turning to `COC(=O)C1=C([C@H]2CC[C@H](NS(N)(=O)=O)CC2)NC(c2nccs2)=NC1c1ccc(F)c(F)c1Cl` (relative stereo) [Compound 238, (trans)-Methyl 4-(2-chloro-3,4-difluorophenyl)-6-(4-(sulfamoylamino)cyclohexyl)-2-(thiazol-2-yl)-1,4-dihydropyrimidine-5-carboxylate], in the data set on HBV (setting [2]), the EC50 is 53 nM. Moreover, the 50% cytotoxic concentration (CC50) at 6 days in data set [1] amounted to 13400 nM.

For the compound `COC(=O)C1=C(C2CCN(S(=O)(=O)CCOCCOCCO)CC2)NC(c2nccs2)=NC1c1ccc(F)cc1Cl` (stereo not drawn) [Compound 468, Methyl 4-(2-chloro-4-fluorophenyl)-6-(1-((2-(2-(2-hydroxyethoxy)ethoxy)ethyl)sulfonyl)piperidin-4-yl)-2-(thiazol-2-yl)-1,4-dihydropyrimidine-5-carboxylate], in the data set on HBV, a half-maximal response (EC50) required 9 nM. Moreover, the CC50 at 6 days in data set [1] came out at 42900 nM.

For `COC(=O)C1=C(C2CC(O)C2)NC(c2nccs2)=NC1c1ccc(F)cc1Cl` (stereo not drawn) [Compound 295, Methyl 4-(2-chloro-4-fluorophenyl)-6-(3-hydroxycyclobutyl)-2-(thiazol-2-yl)-1,4-dihydropyrimidine-5-carboxylate], the EC50 with HBV (setting [2]) was 215 nM. The same compound came in with a CC50 at 6 days in data set [1] of 64200 nM.

Consider `CCOC(=O)C[C@H]1CC[C@H](C2=C(C(=O)OC)C(c3cccc(F)c3Cl)N=C(c3nccs3)N2)CC1` (relative stereo) [Compound 28, Methyl 4-(2-chloro-3-fluorophenyl)-6-(trans-4-(2-ethoxy-2-oxoethyl)-cyclohexyl)-2-(thiazol-2-yl)-1,4-dihydropyrimidine-5-carboxylate], for which the EC50 with HBV (setting [2]) was determined as 407 nM. Also, the CC50 at 6 days in data set [1] amounted to 49300 nM.

Consider `COC(=O)C1=C([C@H]2CC[C@H](NS(=O)(=O)C3CN(C)C3)CC2)NC(c2nccs2)=NC1c1ccc(F)c(F)c1Cl` (single isomer, unassigned) [Compound 251B, (trans)-Methyl 4-(2-chloro-3,4-difluorophenyl)-6-(4-(1-methylazetidine-3-sulfonamido)cyclohexyl)-2-(thiazol-2-yl)-1,4-dihydropyrimidine-5-carboxylate], for which the EC50 in the data set with HBV (setting [2]) came out at 103 nM. Moreover, half-maximal cytotoxicity in data set [1] (CC50 at 6 days) was put at 8700 nM.

As for `COC(=O)C1=C(C2CCN(S(=O)(=O)[C@H]3C[C@@H](C(=O)O)C3)C2)NC(c2nccs2)=NC1c1ccc(F)cc1Cl` (relative stereo) [Compound 367B, (cis)-3-((3-(6-(2-chloro-4-fluorophenyl)-5-(methoxycarbonyl)-2-(thiazol-2-yl)-3,6-dihydropyrimidin-4-yl)pyrrolidin-1-yl)sulfonyl)cyclobutanecarboxylic Acid], in the data set on HBV (setting [2]), the EC50 is 800 nM. For the same compound, the CC50 at 6 days in data set [1] is > 100000 nM.

`COC(=O)C1=C(C23CC(NS(=O)(=O)CCO)(C2)C3)NC(c2nccs2)=NC1c1ccc(F)cc1Cl` (stereo not drawn) [Compound 390B, Methyl 4-(2-chloro-4-fluorophenyl)-6-(3-(2-hydroxyethylsulfonamido)bicyclo[1.1.1]pentan-1-yl)-2-(thiazol-2-yl)-1,4-dihydropyrimidine-5-carboxylate]: the concentration giving a half-maximal response (EC50) in the data set with HBV (setting [2]) was determined as 54 nM. For the same compound, in data set [1], half-maximal cytotoxicity (CC50 at 6 days) was put at 45300 nM.

Regarding `COC(=O)C1=C(C2CCN(S(=O)(=O)c3cn[nH]c3)CC2)NC(c2nccs2)=NC1c1cccc(F)c1Cl` (stereo not drawn) [Compound 158A, methyl 6-(1-((1H-pyrazol-4-yl)sulfonyl)piperidin-4-yl)-4-(2-chloro-3-fluorophenyl)-2-(thiazol-2-yl)-1,4-dihydropyrimidine-5-carboxylate], the concentration giving a half-maximal response (EC50) in the data set with HBV (setting [2]) came out at 9 nM. This compound also gave a CC50 at 6 days in data set [1] of 12700 nM.

`CCOC(=O)C1=C(C2CCN(S(=O)(=O)[C@H]3C[C@H](C(=O)O)C3)CC2)NC(c2nccs2)=NC1c1ccc(F)cc1Cl` (stereo partly drawn) [Compound 329B, (trans)-3-((4-(6-(2-Chloro-4-fluorophenyl)-5-(ethoxycarbonyl)-2-(thiazol-2-yl)-3,6-dihydropyrimidin-4-yl)piperidin-1-yl)sulfonyl)cyclobutane-carboxylic Acid]: the EC50 with HBV (setting [2]) came out at 69 nM. In addition, it took 60000 nM to reach half-maximal cytotoxicity in data set [1] (CC50 at 6 days).

In the case of `COC(=O)C1=C([C@H]2CC[C@@H](S(=O)(=O)N(C)C)CC2)NC(c2nccs2)=NC1c1ccc(F)c(F)c1Cl` (single isomer, unassigned) [Compound 233B, (cis)-Methyl 4-(2-chloro-3,4-difluorophenyl)-6-(4-(N,N-dimethylsulfamoyl)cyclohexyl)-2-(thiazol-2-yl)-1,4-dihydropyrimidine-5-carboxylate], the EC50 in the data set with HBV (setting [2]) was 56 nM. Besides, the cytotoxic concentration (CC50) at 6 days in data set [1] was 6300 nM.

As to `COC(=O)C1=C(C23CC(NC(C)=O)(C2)C3)NC(c2nccs2)=NC1c1ccc(F)cc1Cl` (stereo not drawn) [Compound 391B, Methyl 6-(3-acetamidobicyclo[1.1.1]pentan-1-yl)-4-(2-chloro-4-fluorophenyl)-2-(thiazol-2-yl)-1,4-dihydropyrimidine-5-carboxylate], the EC50 with HBV (setting [2]) stood at 68 nM. The same compound showed a cytotoxic concentration (CC50) at 6 days in data set [1] of 46800 nM.

In the case of `COC(=O)C1=C(C2CCN(S(C)(=O)=O)CC2)NC(c2nccs2)=NC1c1ccc(Cl)c(F)c1` (single isomer, unassigned) [Compound 124B, 4-(4-Chloro-3-fluoro-phenyl)-6-(1-methanesulfonyl-piperidin-4-yl)-2-thiazol-2-yl-1,4-dihydro-pyrimidine-5-carboxylic Acid Methyl Ester], the EC50 with HBV (setting [2]) was 85 nM. In data set [1], this compound displayed a CC50 at 6 days of 6600 nM.

Regarding `COC(=O)C1=C(C2CCN(S(C)(=O)=O)CC2)NC(c2nccs2)=NC1c1cccc(F)c1Cl` (stereo not drawn) [Compound 112, Methyl 4-(2-chloro-3-fluorophenyl)-6-(1-(methylsulfonyl)-piperidin-4-yl)-2-(thiazol-2-yl)-1,4-dihydropyrimidine-5-carboxylate], the EC50 with HBV (setting [2]) came out at 293 nM. Further, it took 43200 nM to reach half-maximal cytotoxicity in data set [1] (CC50 at 6 days).

For the compound `CCOC(=O)C1=C([C@@H]2C[C@H](NS(C)(=O)=O)CO2)NC(c2nccs2)=NC1c1cccc(F)c1Cl` (relative stereo) [Compound 261, (cis)-Ethyl 4-(2-chloro-3-fluorophenyl)-6-(4-(methylsulfonamido)-tetrahydrofuran-2-yl)-2-(thiazol-2-yl)-1,4-dihydropyrimidine-5-carboxylate], the half-maximal effective concentration (EC50) in the data set with HBV (setting [2]) came to 142 nM. This compound showed a cytotoxic concentration (CC50) at 6 days in data set [1] of 37500 nM.

Values taken from US11639350B2, “Heteroaryldihydropyrimidine derivatives and methods of treating hepatitis B infections” (Janssen Pharmaceutica NV, priority 2018, dated 2023).
